One experiment addresses T1, CDK2/CycE (Homo sapiens, UniProt P24941).
T1 construct: purchased ProQinase GmbH (Freiburg, Germany); host or cells: insect cells (Sf9)
The experiment in a line: CDK2/CycE kinase assay (TR-FRET, 2 mM ATP). Conditions: read-out: CDK2/CyclinE, 2 mM ATP (high ATP) IC50-[mol/l] (median). The format is biochemical. The text has this: CDK2/CycE-inhibitory activity of compounds of the present invention was quantified employing the CDK2/CycE TR-FRET assay as described in the following paragraphs.
Recombinant fusion proteins of GST and human CDK2 and of GST and human CycE, expressed in insect cells (Sf9) and purified by Glutathion-Sepharose affinity chromatography, were purchase from ProQinase GmbH (Freiburg, Germany). As substrate for the kinase reaction biotinylated peptide biotin-Ttds-YISPLKSPYKISEG (C-terminus in amid form) was used which can be purchased e.g. form the company JERINI peptide technologies (Berlin, Germany).
For the assay 50 nanoL of a 100 fold concentrated solution of the test compound in DMSO was pipetted into a black low volume 384 well microtiter plate or a black 1536 well microtiter plate (both Greiner Bio-One, Frickenhausen, Germany), 2 microL of a solution of CDK2/CycE in aqueous assay buffer [50 millimol/L Tris/HCl pH 8.0, 10 millimol/L MgCl2, 1.0 millimol/L dithiothreitol, 0.1 millimol/L sodium ortho-vanadate, 0.01% (v/v) Nonidet-P40 (Sigma)] were added and the mixture was incubated for 15 min at 22° C. to allow pre-binding of the test compounds to the enzyme before the start of the kinase reaction. Then the kinase reaction was started by the addition of 3 microL of a solution of adenosine-tri-phosphate (ATP, 3.33 millimol/L=> final conc. in the 5 microL assay volume is 2 millimol/L) and substrate (1.25 micromol/L=> final conc. in the 5 microL assay volume is 0.75 micromol/L) in assay buffer and the resulting mixture was incubated for a reaction time of 25 min at 22° C. The concentration of CDK2/CycE was adjusted depending of the activity of the enzyme lot and was chosen appropriate to have the assay in the linear range, typical concentrations were in the range of 10 ng/ml. The reaction was stopped by the addition of 3 microL of a solution of TR-FRET detection reagents (0.333 micromol/L streptavidine-XL665 [Cisbio Bioassays, Codolet, France] and 1.67 nanomol/L anti-RB(pSer807/pSer8l 1)-antibody from BD Pharmingen [#558389] and 2 nanomol/L LANCE EU-W1024 labeled anti-mouse IgG antibody [Perkin-Elmer, product no. AD0077, as an alternative a Terbium-cryptate-labeled anti-mouse IgG antibody from Cisbio Bioassays can be used]) in an aqueous EDTA-solution (167 millimol/L EDTA, 0.2% (w/v) bovine serum albumin in 100 millimol/L HEPES pH 7.5).
The resulting mixture was incubated 1 h at 22° C. to allow the formation of complex between the phosphorylated biotinylated peptide and the detection reagents. Subsequently the amount of phosphorylated substrate was evaluated by measurement of the resonance energy transfer from the Eu-chelate to the streptavidine-XL. Therefore, the fluorescence emissions at 620 nm and 665 nm after excitation at 350 nm was measured in a TR-FRET reader, e.g. a Pherastar (BMG Labtechnologies, Offenburg, Germany) or a Viewlux (Perkin-Elmer). The ratio of the emissions at 665 nm and at […] was taken as the measure for the amount of phosphorylated substrate. The data were normalised (enzyme reaction without inhibitor=0% inhibition, all other assay components but no enzyme=100% inhibition).

In experiment [1] the test system is BRCA1 mRNA expression in MDA-MB-231 cells. Put plainly: qRT-PCR assay: inhibition of BRCA1 mRNA expression in MDA-MB-231 cells. The experiment is classed as cell-based. Conditions: Homo sapiens, 24 h exposure, normalised to GAPDH, read-out: RTqPCR-MDA-MB-231 IC50 [mol/l] BRCA1 (median). The method, then: Tissue cultured human MDA-MB-231 human breast cancer cells were plated in 500 microL per well at 200,000 cells/well in a 24 well microtiter plate. After 24 h, the cells were exposed continuously for 24 h to test substances (substances were added with Tecan HP D300 Dispenser). RNA was prepared using Qiagen RNeasy MiniKit (#74106), RNA was quantified using a NanoDrop Equipment, and 600 nano gamms of RNA was converted to cDNA using a SuperScript VILO kit (Thermofisher #11755050) followed by qPCR amplification. BRCA1 and ATR gene expression was measured by RT-qPCR and normalised to GAPDH housekeeping gene expression. qPCR primer sets have been purchased from Thermo Fisher Scientific/Applied Biosystems: BRCA1, #Hs 01556193; ATR, #Hs 00992123; GAPDH, #Hs 03929097.

Another experiment relates to CYCLIN K. Put plainly: CYCLIN K nuclear protein level: immunofluorescence/high content analysis in CAL-120 cells. The format is cell-based, human. Conditions: 24 h, nuclear CCNK staining, read-out: CYCLIN K degradation IF, DC50-[mol/l] (median). The protocol: In the context of the present invention, the term “DC50 Cyclin K” refers to the DC50 values obtained according to the assay described in this section (7) herein below, i.e. the DC50 values for the degradation of Cyclin K.
CAL-120 human breast cancer cells (DSMZ ACC 459) are seeded in 1536-well microtiter plates (800 cells per well) containing 50 nanoL of compounds in Dose-Response. Control wells received DMSO or Reference Example 1. Plates are then incubated for 24 h at 37° C. in an humidified incubator and fixed with 4% PFA for 10 min. Then immunofluorescence (IF) against CYCLIN K (ThermoFisher Scientific CCNK Antibody #PA5-85020, rabbit, 1:200 dilution) is performed using standard IF protocols. Cells are then stained with Hoechst 33342 (Life Technologies, H-1399, 0.1 microg/ml) and imaged on an automated confocal microscopy system (e.g. Perkin Elmer Opera Phenix). Nuclear and cytoplasmic intensity as well as the nuclear/cytoplasmic intensity ratio is determined by automated image analysis using custom generated scripts (MetaXpress). Data is then transferred to Genedata Screener software, normalized to DMSO and control and DC50 values (degrading concentration to achieve 50% reduction of nuclear CCNK staining intensity relative to controls) are reported.

Here are results for 16 compounds from patent US20230106032A1, “IMIDAZOTRIAZINES ACTING ON CANCER VIA INHIBITION OF CDK12” (Bayer Aktiengesellschaft, priority 2020, published 2023).

Turning to `Fc1ccc2[nH]c(CNc3nc(N4CCOCC4)nn4c(Br)cnc34)nc2c1F` [Example 7, 7-bromo-N-[(4,5-difluoro-1H-benzimidazol-2-yl)methyl]-2-(morpholin-4-yl)imidazo[2,1-f][1,2,4]triazin-4-amine], the IC50 at CDK2/CycE is > 20000 nM; in experiment [1] it was 6.36 nM. The DC50 in the experiment with CYCLIN K came out at 0.201 nM.
Taken in the same sequence, the figures for `N#Cc1cnc2c(NCc3nc4ccccc4[nH]3)nc(N3CCOCC3)nn12` [Example 2, 4-{[(1H-benzimidazol-2-yl)methyl]amino}-2-(morpholin-4-yl)imidazo[2,1-f][1,2,4]triazine-7-carbonitrile] were > 20000 nM, 11.1 nM and 3.58 nM.
For the compound `CN1CCN(c2nc(NCc3nc4ccccc4[nH]3)c3ncc(C(F)(F)F)n3n2)CC1` [Example 25, N-[(1H-benzimidazol-2-yl)methyl]-2-(4-methylpiperazin-1-yl)-7-(trifluoromethyl)imidazo[2,1-f][1,2,4]triazin-4-amine], the values for the IC50 (at CDK2/CycE; in experiment [1]) were > 20000 nM and 8.65 nM, respectively. Moreover, the DC50 in the experiment on CYCLIN K amounted to 1.66 nM.
In the same order, the values of `COc1cccc2[nH]c(CNc3nc(N4C[C@@H](C)N[C@@H](C)C4)nn4c(Br)cnc34)nc12` [Example 14, 7-bromo-2-[rel-(3R,5S)-3,5-dimethylpiperazin-1-yl]-N-[(4-methoxy-1H-benzimidazol-2-yl)methyl]imidazo[2,1-f][1,2,4]triazin-4-amine] are > 20000 nM, 1.47 nM and 0.225 nM.
`Fc1cccc2[nH]c(CNc3nc(N4CCNCC4)nn4c(Br)cnc34)nc12` [Example 22, 7-bromo-N-[(4-fluoro-1H-benzimidazol-2-yl)methyl]-2-(piperazin-1-yl)imidazo[2,1-f][1,2,4]triazin-4-amine]: in experiment [1], the IC50 was determined as 0.884 nM. Further, in the experiment with CYCLIN K, the DC50 worked out at 0.589 nM.
Turning to `Fc1ccc2[nH]c(CNc3nc(N4CCOCC4)nn4c(C(F)(F)F)cnc34)nc2c1F` [Example 27, N-[(4,5-difluoro-1H-benzimidazol-2-yl)methyl]-2-(morpholin-4-yl)-7-(trifluoromethyl)imidazo[2,1-f][1,2,4]triazin-4-amine], the IC50 at CDK2/CycE is > 20000 nM; in experiment [1], 1.05 nM. Besides, in the experiment with CYCLIN K, the DC50 is 3.45 nM.
With `COc1cccc2[nH]c(CNc3nc(N4CCN(C)CC4)nn4c(Br)cnc34)nc12.O=CO` [Example 16, 7-bromo-N-[(4-methoxy-1H-benzimidazol-2-yl)methyl]-2-(4-methylpiperazin-1-yl)imidazo[2,1-f][1,2,4]triazin-4-amine Formate (1/1)], the IC50 was 12600 nM on CDK2/CycE and 5.59 nM in experiment [1]. Also, the DC50 with CYCLIN K was 0.954 nM.
In the case of `Fc1cccc2[nH]c(CNc3nc(N4CCOCC4)nn4c(Br)cnc34)nc12` [Example 12, 7-bromo-N-[(4-fluoro-1H-benzimidazol-2-yl)methyl]-2-(morpholin-4-yl)imidazo[2,1-f][1,2,4]triazin-4-amine], the IC50 at CDK2/CycE is > 20000 nM. For the same compound, the DC50 in the experiment with CYCLIN K came out at 0.292 nM.
As for `CN1CCN(c2nc(NCc3nc4ccccc4[nH]3)c3ncc(Br)n3n2)CC1` [Example 6, N-[(1H-benzimidazol-2-yl)methyl]-7-bromo-2-(4-methylpiperazin-1-yl)imidazo[2,1-f][1,2,4]triazin-4-amine], the IC50 at CDK2/CycE is > 20000 nM; in experiment [1], 69 nM. In the experiment with CYCLIN K, the DC50 was found to be 2.31 nM.
`C[C@@H]1CN(c2nc(NCc3nc4cc(F)ccc4[nH]3)c3ncc(Br)n3n2)C[C@H](C)N1` [Example 19, 7-bromo-2-[rel-(3R,5S)-3,5-dimethylpiperazin-1-yl]-N-[(5-fluoro-1H-benzimidazol-2-yl)methyl]imidazo[2,1-f][1,2,4]triazin-4-amine]: the IC50 on CDK2/CycE was > 20000 nM; in experiment [1] it was 0.886 nM. Also, in the experiment on CYCLIN K, the DC50 came to 0.0931 nM.
On to `OC[C@@H]1CCCCN1c1nc(NCc2nc3ccccc3[nH]2)c2ncc(Br)n2n1` [Example 17, [(2S)-1-(4-{[(1H-benzimidazol-2-yl)methyl]amino}-7-bromoimidazo[2,1-f][1,2,4]triazin-2-yl)piperidin-2-yl]methanol], for which the IC50 amounted to 1410 nM at CDK2/CycE and 15.7 nM in experiment [1]. Also, the DC50 with CYCLIN K was 3.94 nM.
`Brc1cnc2c(NCc3nc4ccccc4[nH]3)nc(N3CCNCC3)nn12` [Example 8, N-[(1H-benzimidazol-2-yl)methyl]-7-bromo-2-(piperazin-1-yl)imidazo[2,1-f][1,2,4]triazin-4-amine]: the IC50 on CDK2/CycE was > 20000 nM; in experiment [1], 3.4 nM. In the experiment on CYCLIN K, the DC50 was 1.28 nM.
On to `C[C@@H]1CN(c2nc(NCc3nc4c(F)c(F)ccc4[nH]3)c3ncc(Br)n3n2)C[C@H](C)N1` [Example 11, 7-bromo-N-[(4,5-difluoro-1H-benzimidazol-2-yl)methyl]-2-[rel-(3R,5S)-3,5-dimethylpiperazin-1-yl]imidazo[2,1-f][1,2,4]triazin-4-amine], for which the figures for the IC50 (at CDK2/CycE; in experiment [1]) were > 20000 nM and 0.396 nM, respectively. Besides, in the experiment on CYCLIN K, the DC50 was determined as 0.0525 nM.
Taken in the same sequence, the figures for `Fc1ccc2[nH]c(CNc3nc(N4CCOCC4)nn4c(Br)cnc34)nc2c1` [Example 20, 7-bromo-N-[(5-fluoro-1H-benzimidazol-2-yl)methyl]-2-(morpholin-4-yl)imidazo[2,1-f][1,2,4]triazin-4-amine] were 17200 nM, 3.54 nM and 0.0659 nM.
Consider `C[C@@H]1CN(c2nc(NCc3nc4c(F)cccc4[nH]3)c3ncc(Br)n3n2)C[C@H](C)N1` [Example 18, 7-bromo-2-[rel-(3R,5S)-3,5-dimethylpiperazin-1-yl]-N-[(4-fluoro-1H-benzimidazol-2-yl)methyl]imidazo[2,1-f][1,2,4]triazin-4-amine], for which the IC50 on CDK2/CycE was > 20000 nM; in experiment [1], 1.98 nM. The DC50 with CYCLIN K turned out to be 0.505 nM.
As for `CN(CC(C)(C)O)c1nc(NCc2nc3ccccc3[nH]2)c2ncc(C(F)(F)F)n2n1` [Example 30, 1-[{4-[(1H-benzimidazol-2-ylmethyl)amino]-7-(trifluoromethyl)imidazo[2,1-f][1,2,4]triazin-2-yl}(methyl)amino]-2-methylpropan-2-ol], the IC50 came out at 4780 nM on CDK2/CycE and 7.23 nM in experiment [1].
